Where two headings read alike, the source gives them in different places.
What was measured:
Experiment in all cases: Kinase selectivity, P33-radiolabeled assay
Format in all cases: biochemical
Conditions in all cases: 10 μM ATP
[1] = biological target: T1, P38b/MAPK11 (Homo sapiens, UniProt Q15759)
T1 construct: purchased Reaction Biology Corp
Method in brief: (§1)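 Reactions contained 10 μM ATP and 10 μM test compound, each run in duplicate. Kinase activity is expressed as a percentage of DMSO-treated controls.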

[2] = biological target: T2, MRCKa/CDC42BPA (Homo sapiens, UniProt Q5VT25)
T2 construct: purchased Reaction Biology Corp
T2 sequence (Q5VT25 whole entry): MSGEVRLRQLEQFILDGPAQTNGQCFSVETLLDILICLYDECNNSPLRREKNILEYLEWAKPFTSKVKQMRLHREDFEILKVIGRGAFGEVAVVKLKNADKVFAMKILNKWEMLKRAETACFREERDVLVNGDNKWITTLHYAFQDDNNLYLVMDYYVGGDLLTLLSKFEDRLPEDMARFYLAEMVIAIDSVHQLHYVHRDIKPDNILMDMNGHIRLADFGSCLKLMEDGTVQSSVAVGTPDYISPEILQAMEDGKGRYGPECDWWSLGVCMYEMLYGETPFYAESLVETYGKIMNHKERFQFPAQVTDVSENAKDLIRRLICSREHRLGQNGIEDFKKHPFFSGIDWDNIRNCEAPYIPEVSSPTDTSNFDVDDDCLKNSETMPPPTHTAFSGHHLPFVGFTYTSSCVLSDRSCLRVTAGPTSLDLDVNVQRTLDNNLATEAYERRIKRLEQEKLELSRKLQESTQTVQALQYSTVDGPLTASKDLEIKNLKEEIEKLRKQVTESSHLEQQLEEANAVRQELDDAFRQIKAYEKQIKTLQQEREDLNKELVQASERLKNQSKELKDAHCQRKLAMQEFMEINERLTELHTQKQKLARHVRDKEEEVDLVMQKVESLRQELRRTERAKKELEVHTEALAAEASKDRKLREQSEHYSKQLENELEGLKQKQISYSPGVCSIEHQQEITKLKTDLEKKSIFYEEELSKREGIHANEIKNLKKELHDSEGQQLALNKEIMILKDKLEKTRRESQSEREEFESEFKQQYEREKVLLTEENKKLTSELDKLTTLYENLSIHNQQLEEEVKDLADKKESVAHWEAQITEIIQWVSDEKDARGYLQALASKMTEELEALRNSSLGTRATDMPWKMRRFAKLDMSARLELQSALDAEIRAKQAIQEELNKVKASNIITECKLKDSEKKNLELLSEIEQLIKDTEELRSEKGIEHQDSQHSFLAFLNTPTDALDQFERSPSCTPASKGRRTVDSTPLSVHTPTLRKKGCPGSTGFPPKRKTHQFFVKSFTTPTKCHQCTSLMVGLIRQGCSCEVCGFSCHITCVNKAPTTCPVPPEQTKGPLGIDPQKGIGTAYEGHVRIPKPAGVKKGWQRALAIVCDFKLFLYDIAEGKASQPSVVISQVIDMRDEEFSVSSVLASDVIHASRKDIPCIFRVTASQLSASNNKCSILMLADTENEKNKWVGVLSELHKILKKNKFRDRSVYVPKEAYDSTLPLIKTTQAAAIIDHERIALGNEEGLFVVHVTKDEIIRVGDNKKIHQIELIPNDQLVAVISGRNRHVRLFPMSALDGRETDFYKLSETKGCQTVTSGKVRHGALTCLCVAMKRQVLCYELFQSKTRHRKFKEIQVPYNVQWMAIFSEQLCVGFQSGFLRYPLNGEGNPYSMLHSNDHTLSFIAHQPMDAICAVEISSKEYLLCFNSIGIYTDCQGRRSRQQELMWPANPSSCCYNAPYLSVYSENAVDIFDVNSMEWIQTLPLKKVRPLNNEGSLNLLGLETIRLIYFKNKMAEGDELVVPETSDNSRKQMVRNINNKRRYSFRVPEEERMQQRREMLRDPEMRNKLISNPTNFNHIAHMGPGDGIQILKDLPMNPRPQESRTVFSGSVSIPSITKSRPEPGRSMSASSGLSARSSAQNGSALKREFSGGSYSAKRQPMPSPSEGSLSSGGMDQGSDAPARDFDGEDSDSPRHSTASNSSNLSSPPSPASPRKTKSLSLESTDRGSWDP
Method in brief: as §1

[3] = biological target: T3, GRK4 (Homo sapiens, UniProt P32298)
T3 construct: purchased Reaction Biology Corp
T3 sequence (P32298 whole entry): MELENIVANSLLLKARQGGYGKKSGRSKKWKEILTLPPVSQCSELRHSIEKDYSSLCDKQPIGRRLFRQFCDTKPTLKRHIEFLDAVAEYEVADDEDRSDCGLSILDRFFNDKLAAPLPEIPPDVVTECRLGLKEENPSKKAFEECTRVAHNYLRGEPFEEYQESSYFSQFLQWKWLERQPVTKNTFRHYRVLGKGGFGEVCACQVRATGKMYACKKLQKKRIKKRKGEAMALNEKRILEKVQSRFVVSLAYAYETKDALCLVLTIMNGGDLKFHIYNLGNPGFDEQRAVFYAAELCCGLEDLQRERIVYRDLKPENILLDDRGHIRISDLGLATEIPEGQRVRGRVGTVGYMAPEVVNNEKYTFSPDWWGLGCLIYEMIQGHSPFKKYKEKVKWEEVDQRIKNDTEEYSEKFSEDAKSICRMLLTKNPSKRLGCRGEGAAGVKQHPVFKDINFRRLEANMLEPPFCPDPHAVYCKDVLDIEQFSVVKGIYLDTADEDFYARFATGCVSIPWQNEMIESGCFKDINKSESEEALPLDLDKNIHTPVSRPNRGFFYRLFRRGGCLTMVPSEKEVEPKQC
Method in brief: as §1

[4] = biological target: T4, CAMK2d (Homo sapiens, UniProt Q13557)
T4 construct: purchased Reaction Biology Corp
T4 sequence (Q13557 whole entry): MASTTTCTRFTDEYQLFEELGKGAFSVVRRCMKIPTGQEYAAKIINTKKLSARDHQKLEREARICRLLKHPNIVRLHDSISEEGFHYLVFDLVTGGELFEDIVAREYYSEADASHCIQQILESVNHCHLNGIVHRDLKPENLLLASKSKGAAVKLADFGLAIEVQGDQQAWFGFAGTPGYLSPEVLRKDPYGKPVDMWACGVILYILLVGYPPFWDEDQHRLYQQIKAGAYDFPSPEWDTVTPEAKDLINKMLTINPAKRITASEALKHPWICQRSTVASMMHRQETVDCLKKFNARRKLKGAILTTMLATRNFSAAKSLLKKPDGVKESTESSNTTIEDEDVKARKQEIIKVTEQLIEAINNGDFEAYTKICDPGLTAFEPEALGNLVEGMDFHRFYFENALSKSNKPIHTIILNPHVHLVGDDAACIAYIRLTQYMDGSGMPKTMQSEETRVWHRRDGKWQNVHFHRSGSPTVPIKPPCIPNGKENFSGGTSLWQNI
Method in brief: as §1

[5] = biological target: T5, PKCnu/PRKD3 (Homo sapiens, UniProt O94806)
T5 construct: purchased Reaction Biology Corp
T5 sequence (O94806 1-890): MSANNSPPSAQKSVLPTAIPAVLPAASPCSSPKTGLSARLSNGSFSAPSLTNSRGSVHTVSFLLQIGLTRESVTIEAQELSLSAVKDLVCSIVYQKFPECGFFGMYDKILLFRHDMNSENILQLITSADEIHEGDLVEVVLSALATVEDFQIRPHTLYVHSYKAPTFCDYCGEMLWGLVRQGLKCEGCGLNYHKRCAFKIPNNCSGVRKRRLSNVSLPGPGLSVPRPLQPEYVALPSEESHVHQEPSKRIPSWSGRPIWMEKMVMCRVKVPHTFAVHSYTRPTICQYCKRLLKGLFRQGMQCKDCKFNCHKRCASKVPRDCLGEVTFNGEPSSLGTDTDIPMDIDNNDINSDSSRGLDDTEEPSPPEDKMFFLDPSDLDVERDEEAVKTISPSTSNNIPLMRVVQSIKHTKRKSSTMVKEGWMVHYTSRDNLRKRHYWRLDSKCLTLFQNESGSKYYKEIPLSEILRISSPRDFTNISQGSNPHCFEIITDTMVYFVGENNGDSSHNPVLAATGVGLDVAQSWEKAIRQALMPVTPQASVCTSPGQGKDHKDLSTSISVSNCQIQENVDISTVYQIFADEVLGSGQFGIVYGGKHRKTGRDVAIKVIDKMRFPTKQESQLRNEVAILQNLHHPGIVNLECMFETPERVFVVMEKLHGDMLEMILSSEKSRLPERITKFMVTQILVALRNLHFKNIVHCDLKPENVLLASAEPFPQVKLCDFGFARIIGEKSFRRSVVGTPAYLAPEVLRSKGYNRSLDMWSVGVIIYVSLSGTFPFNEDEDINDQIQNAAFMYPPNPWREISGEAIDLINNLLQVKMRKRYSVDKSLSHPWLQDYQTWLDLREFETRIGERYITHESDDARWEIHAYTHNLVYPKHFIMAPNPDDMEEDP
Method in brief: as §1

[6] = biological target: T6, PDGFRb (Homo sapiens, UniProt P09619)
T6 construct: purchased Reaction Biology Corp
Method in brief: as §1

[7] = biological target: T7, GRK6 (Homo sapiens, UniProt P43250)
T7 construct: purchased Reaction Biology Corp
T7 sequence (P43250 whole entry): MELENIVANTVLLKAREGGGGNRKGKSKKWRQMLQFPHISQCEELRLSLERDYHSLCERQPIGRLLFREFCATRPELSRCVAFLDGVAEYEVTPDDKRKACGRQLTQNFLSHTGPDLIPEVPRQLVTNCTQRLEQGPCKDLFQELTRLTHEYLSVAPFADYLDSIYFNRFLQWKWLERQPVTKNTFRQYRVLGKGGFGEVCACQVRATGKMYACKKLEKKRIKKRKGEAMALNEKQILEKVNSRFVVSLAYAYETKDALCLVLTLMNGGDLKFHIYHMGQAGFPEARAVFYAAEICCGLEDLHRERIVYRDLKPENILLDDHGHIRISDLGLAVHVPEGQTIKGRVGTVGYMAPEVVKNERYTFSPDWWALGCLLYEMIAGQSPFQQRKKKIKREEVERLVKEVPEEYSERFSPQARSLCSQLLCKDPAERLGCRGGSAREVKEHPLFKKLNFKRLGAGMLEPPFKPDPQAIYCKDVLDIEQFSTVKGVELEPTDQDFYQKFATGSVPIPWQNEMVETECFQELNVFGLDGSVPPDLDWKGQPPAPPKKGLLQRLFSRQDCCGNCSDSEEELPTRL
Method in brief: as §1

[8] = biological target: T8, GRK5 (Homo sapiens, UniProt P34947)
T8 construct: purchased Reaction Biology Corp
T8 sequence (P34947 whole entry): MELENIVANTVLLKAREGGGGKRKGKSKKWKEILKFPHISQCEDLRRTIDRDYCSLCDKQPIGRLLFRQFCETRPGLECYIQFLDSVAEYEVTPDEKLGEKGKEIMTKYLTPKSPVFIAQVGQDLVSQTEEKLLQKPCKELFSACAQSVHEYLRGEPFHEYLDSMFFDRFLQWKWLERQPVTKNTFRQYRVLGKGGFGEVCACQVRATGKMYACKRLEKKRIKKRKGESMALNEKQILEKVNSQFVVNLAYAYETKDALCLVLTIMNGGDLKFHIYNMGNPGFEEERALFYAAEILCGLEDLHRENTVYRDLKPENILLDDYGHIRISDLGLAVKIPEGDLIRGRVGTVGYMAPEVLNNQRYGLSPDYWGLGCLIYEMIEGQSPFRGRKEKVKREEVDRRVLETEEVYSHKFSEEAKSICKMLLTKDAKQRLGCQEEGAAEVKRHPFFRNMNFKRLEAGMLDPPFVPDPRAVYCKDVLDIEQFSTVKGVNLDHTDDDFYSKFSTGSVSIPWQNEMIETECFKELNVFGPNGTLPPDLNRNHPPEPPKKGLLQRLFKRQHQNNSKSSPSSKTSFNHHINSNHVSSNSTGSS
Method in brief: as §1

[9] = biological target: T9, ERK2/MAPK1 (Homo sapiens, UniProt P28482)
T9 construct: purchased Reaction Biology Corp
T9 sequence (P28482 whole entry): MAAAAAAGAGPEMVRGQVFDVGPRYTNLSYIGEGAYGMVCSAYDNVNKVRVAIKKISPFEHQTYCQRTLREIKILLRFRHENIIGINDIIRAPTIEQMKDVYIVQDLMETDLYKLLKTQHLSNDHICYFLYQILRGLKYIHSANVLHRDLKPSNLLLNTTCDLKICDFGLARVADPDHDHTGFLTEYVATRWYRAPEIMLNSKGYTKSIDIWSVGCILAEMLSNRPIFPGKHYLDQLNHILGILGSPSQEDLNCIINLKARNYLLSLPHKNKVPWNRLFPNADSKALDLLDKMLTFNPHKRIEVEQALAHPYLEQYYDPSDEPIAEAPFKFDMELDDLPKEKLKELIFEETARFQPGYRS
Method in brief: as §1

[10] = biological target: T10, LATS2 (Homo sapiens, UniProt Q9NRM7)
T10 construct: purchased Reaction Biology Corp
T10 sequence (Q9NRM7 1-1088): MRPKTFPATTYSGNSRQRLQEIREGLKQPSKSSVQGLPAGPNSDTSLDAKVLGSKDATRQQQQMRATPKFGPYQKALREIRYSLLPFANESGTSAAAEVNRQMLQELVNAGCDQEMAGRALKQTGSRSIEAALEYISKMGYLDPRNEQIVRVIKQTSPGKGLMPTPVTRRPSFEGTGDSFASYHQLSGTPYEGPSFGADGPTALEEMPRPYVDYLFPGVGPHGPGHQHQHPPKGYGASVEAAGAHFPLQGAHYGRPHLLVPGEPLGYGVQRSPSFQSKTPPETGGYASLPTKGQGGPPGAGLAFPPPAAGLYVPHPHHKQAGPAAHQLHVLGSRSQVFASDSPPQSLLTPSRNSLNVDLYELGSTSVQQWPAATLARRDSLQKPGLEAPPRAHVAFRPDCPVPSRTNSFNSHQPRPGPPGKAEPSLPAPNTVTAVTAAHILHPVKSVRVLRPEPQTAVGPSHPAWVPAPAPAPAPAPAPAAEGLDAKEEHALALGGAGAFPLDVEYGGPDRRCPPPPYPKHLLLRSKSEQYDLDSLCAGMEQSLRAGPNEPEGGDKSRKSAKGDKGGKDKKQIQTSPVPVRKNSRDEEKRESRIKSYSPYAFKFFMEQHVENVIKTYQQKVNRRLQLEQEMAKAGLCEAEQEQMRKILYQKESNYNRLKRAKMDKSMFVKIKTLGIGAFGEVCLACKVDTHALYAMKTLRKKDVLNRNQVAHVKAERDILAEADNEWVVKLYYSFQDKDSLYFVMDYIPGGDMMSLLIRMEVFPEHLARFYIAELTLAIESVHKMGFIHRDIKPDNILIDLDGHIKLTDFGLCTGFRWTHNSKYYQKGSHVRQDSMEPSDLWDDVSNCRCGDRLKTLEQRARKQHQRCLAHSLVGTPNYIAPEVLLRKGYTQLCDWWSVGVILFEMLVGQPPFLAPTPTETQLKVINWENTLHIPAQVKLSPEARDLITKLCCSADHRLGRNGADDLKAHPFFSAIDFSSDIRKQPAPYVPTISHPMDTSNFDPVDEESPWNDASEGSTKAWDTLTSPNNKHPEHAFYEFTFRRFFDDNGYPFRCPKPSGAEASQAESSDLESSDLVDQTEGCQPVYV
Method in brief: as §1

[11] = read-out: % Enzyme Activity (relative to DMSO controls) AVG
[12] = read-out: % Enzyme Activity (relative to DMSO controls) Data 1
[13] = read-out: % Enzyme Activity (relative to DMSO controls) Data 2

T1 sequence (Q15759 whole entry): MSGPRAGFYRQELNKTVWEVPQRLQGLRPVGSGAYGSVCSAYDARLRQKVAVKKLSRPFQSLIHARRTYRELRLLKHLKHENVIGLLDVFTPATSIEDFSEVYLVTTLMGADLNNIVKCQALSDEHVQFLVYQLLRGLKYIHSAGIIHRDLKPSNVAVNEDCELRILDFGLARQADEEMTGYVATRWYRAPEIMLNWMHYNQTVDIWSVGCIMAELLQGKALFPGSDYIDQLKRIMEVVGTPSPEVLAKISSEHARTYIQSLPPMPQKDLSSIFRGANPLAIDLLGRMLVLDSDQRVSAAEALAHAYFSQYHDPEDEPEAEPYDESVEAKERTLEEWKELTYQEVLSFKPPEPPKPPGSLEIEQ

`CC(C)(C)C(=O)N1N=CC[C@H]1c1ccccc1` [GSK′963] was tested, and the remaining activity at 10 µM [1, 11] was 102%, the remaining activity at 10 µM [1, 12] was 104% and the remaining activity at 10 µM [1, 13] was 99.3%. It also gave a remaining activity at 10 µM [2, 11] of 111%, a remaining activity at 10 µM [2, 12] of 110% and a remaining activity at 10 µM [2, 13] of 112%. It also gave a remaining activity at 10 µM [3, 11] of 97.9%, a remaining activity at 10 µM [3, 12] of 97.9% and a remaining activity at 10 µM [3, 13] of 97.8%. The remaining activity at 10 µM [4, 11] was 108%, the remaining activity at 10 µM [4, 12] was 109% and the remaining activity at 10 µM [4, 13] was 108%. The remaining activity at 10 µM [5, 11] was 101%, the remaining activity at 10 µM [5, 12] was 103% and the remaining activity at 10 µM [5, 13] was 100%. For the same compound, the remaining activity at 10 µM [6, 11] was 104%, the remaining activity at 10 µM [6, 12] was 101% and the remaining activity at 10 µM [6, 13] was 107%. For the same compound, the remaining activity at 10 µM [7, 11] was 104%, the remaining activity at 10 µM [7, 12] was 104% and the remaining activity at 10 µM [7, 13] was 103%. It also gave a remaining activity at 10 µM [8, 11] of 99.4%, a remaining activity at 10 µM [8, 12] of 98.2% and a remaining activity at 10 µM [8, 13] of 101%. It also gave a remaining activity at 10 µM [9, 11] of 97.5%, a remaining activity at 10 µM [9, 12] of 96.5% and a remaining activity at 10 µM [9, 13] of 98.5%. It also gave a remaining activity at 10 µM [10, 11] of 117%, a remaining activity at 10 µM [10, 12] of 112% and a remaining activity at 10 µM [10, 13] of 121%.
